Experimental data from EPA's ToxValDB 9.5.
Where “and” joins values, the source holds several entries; their conditions need not be identical. Equal values may be shown once.

Test system: Rattus norvegicus
Details: for LD50: acute; for NOAEL (% diet): duration: 29 days
[1] = reproduction developmental, duration: 32 days, oral, gavage, Sprague-Dawley, generation: F0
[2] = developmental, oral, gavage, Sprague-Dawley
[3] = reproduction developmental, oral, gavage, F, Sprague-Dawley
[4] = subchronic, oral, gavage, Sprague-Dawley
[5] = reproduction developmental, duration: 41 days, oral, gavage, F, Crj:CD
[6] = reproduction developmental, duration: 41 days, oral, gavage, M, Crj:CD

Question: Which LD50 (oral, gavage, Wistar) does the source give for `CCCCCCCCCCCCCCCCCC(=O)OCCO` [2-Hydroxyethyl octadecanoate] here?
Answer: The LD50 was > 5000 mg/kg.

Question: Which LD50 (oral, gavage, Sprague-Dawley) does the source give for `CCCCCCCCCCCCCl` [1-Chlorododecane] here?
Answer: Its LD50 is > 2000 mg/kg.

Question: What about the LOAEL [1] of the same molecule?
Answer: Its LOAEL is 300 mg/kg-day.

Question: What about the NOAEL [1] of the same molecule?
Answer: The NOAEL was 100 mg/kg-day.

Question: What about the LOAEL (reproduction developmental, duration: 32 days, oral, gavage, Sprague-Dawley, generation: F1) of the same molecule?
Answer: The LOAEL was 1000 mg/kg-day.

Question: Which LD50 (oral, gavage) does the source give for `Cc1cc(S(=O)(=O)[O-])c(N=Nc2c([O-])c(C(=O)O)cc3ccccc23)cc1Cl.[Ba+2]` here?
Answer: The LD50 was ≥ 5000 mg/kg.

Question: What does the source list for `O=C(O)C1CCC(C(=O)O)CC1` (stereo unspecified) [1,4-Cyclohexanedicarboxylic acid]?
Answer: LD50 (oral, gavage, Sprague-Dawley): 2080 mg/kg; NOAEL (% diet) (short-term, oral, diet, F, Sprague-Dawley): 1; NOAEL (% diet) (short-term, oral, diet, M, Sprague-Dawley): 1; NOAEL (subchronic, duration: 90 days, oral, gavage, F, Wistar): 300 mg/kg-day; NOAEL (subchronic, duration: 90 days, oral, gavage, M, Wistar): 300 mg/kg-day

Question: For `O[B-](c1ccccc1)(c1ccccc1)c1ccccc1.[Na+]` [Sodium hydroxytriphenylborate], which LD50 (oral, gavage, Sprague-Dawley) is on record?
Answer: Its LD50 is 1240 mg/kg.

Question: For `C=C(C)C(=O)OCC[N+](C)(C)C.[Cl-]` [(2-(Methacryloyloxy)ethyl)trimethylammonium chloride], which LD50 (oral, gavage, Sprague-Dawley) is on record?
Answer: Its LD50 is > 2000 mg/kg.

Question: And the NOAEL (short-term, duration: 28 days, oral, diet, F, Crj:CD)?
Answer: The NOAEL was > 1000 mg/kg-day.

Question: What about the NOAEL (short-term, duration: 28 days, oral, diet, M, Crj:CD) of the same molecule?
Answer: Its NOAEL is > 1000 mg/kg-day.

Question: For `O=C(OCCOCCOC(=O)c1ccccc1)c1ccccc1` [Diethylene glycol dibenzoate], which NOAEL (developmental, duration: 38 weeks, oral, diet, Sprague-Dawley) is on record?
Answer: The NOAEL was 3300 ppm.

Question: What about the NOAEL (reproduction developmental, duration: 38 weeks, oral, diet, F, Sprague-Dawley) of the same molecule?
Answer: Its NOAEL is 10000 ppm.

Question: What about the NOAEL (reproduction developmental, duration: 38 weeks, oral, diet, Sprague-Dawley, generation: F0) of the same molecule?
Answer: Its NOAEL is 10000 ppm.

Question: For `CCCCCCCCCCCCOCCCNCCCN` [N1-[3-(Dodecyloxy)propyl]-1,3-propanediamine], which LD50 (oral, gavage) is on record?
Answer: Its LD50 is 378 mg/kg and 299 mg/kg.

Question: With `CCCCCCCCCCCCCOC(=O)c1ccccc1C(=O)OCCCCCCCCCCCCC` [Ditridecyl phthalate] as the molecule, how does the LD50 (oral, gavage, Sprague-Dawley) read?
Answer: The LD50 was > 2000 mg/kg.

Question: What about the NOAEL [2] of the same molecule?
Answer: Its NOAEL is 250 mg/kg-day.

Question: What about the NOAEL [3] of the same molecule?
Answer: The NOAEL was 50 mg/kg-day.

Question: What about the NOAEL (reproduction developmental, oral, gavage, M, Sprague-Dawley) of the same molecule?
Answer: Its NOAEL is 250 mg/kg-day.

Question: And the NOAEL (reproduction developmental, oral, gavage, Sprague-Dawley, generation: F1)?
Answer: Its NOAEL is 250 mg/kg-day.

Question: What about the LOAEL [4] of the same molecule?
Answer: The LOAEL was 50 mg/kg-day.

Question: What about the NOAEL [4] of the same molecule?
Answer: Its NOAEL is 10 mg/kg-day.

Question: For `CC(C)(C)CC(C)(C)N` [tert-Octylamine], which LD50 (oral, gavage, CRL:CD BR) is on record?
Answer: The LD50 was 218 mg/kg.

Question: `O=C(O)CCC(=O)O` [Butanedioic acid] was tested. Which LD50 (oral, gavage) did it give?
Answer: Its LD50 is 2260 mg/kg.

Question: What about the LD50 (oral, gavage, Fischer 344) of the same molecule?
Answer: The LD50 was > 8000 mg/kg.

Question: What about the LOAEL (developmental, injection, intramuscular) of the same molecule?
Answer: The LOAEL was 500 mg/kg-day.

Question: With `C=C(C)COc1ccccc1O` [2-[(2-methyl-2-propenyl)oxy]phenol] as the molecule, how does the LD50 (oral, gavage, Sprague-Dawley) read?
Answer: Its LD50 is 2840 mg/kg and 2940 mg/kg and 3220 mg/kg.

Question: What about the NOAEL (reproduction developmental, oral, gavage, Sprague-Dawley) of the same molecule?
Answer: The NOAEL was > 720 mg/kg-day.

Question: With `COCO` [Methoxymethanol] as the molecule, how does the LD50 (oral, gavage, Crj:CD) read?
Answer: The LD50 was 1270 mg/kg.

Question: And the NOAEL (developmental, oral, gavage, Crj:CD)?
Answer: The NOAEL was 300 mg/kg-day.

Question: And the LOAEL [5]?
Answer: Its LOAEL is 300 mg/kg-day.

Question: What about the NOAEL [5] of the same molecule?
Answer: Its NOAEL is 60 mg/kg-day.

Question: What about the LOAEL [6] of the same molecule?
Answer: The LOAEL was 60 mg/kg-day.

Question: And the NOAEL [6]?
Answer: The NOAEL was 12 mg/kg-day.

Question: And the NOAEL (reproduction developmental, oral, gavage, Crj:CD)?
Answer: Its NOAEL is 300 mg/kg-day.

Question: And the NOAEL (reproduction developmental, oral, gavage, F, Crj:CD)?
Answer: Its NOAEL is 60 mg/kg-day.

Question: And the NOAEL (reproduction developmental, oral, gavage, M, Crj:CD)?
Answer: Its NOAEL is 12 mg/kg-day.

Question: With `CCCCCCCCCCCCCCCCCCN(C)C` [N,N-Dimethyl-1-octadecanamine] as the molecule, how does the LD50 (oral, gavage) read?
Answer: Its LD50 is 2120 mg/kg.

Question: How did the NOAEL [2] turn out when `CC(C)CCCCC(=O)O` [Isooctanoic acid] was run?
Answer: The NOAEL was 800 mg/kg-day.

Question: What about the NOAEL (reproduction developmental, oral, diet, F, Sprague-Dawley) of the same molecule?
Answer: The NOAEL was 7500 ppm.

Question: And the NOAEL (reproduction developmental, oral, diet, Sprague-Dawley, generation: F1)?
Answer: The NOAEL was 7500 ppm.

Question: And the NOAEL [3]?
Answer: The NOAEL was 400 mg/kg-day.
